Source: BigSolDB 2.1

O=C1NC(=O)c2cc([N+](=O)[O-])ccc21
Details | solubility (mole fraction)
in 1,4-dioxane, 283.15 K | 0.0228
in 1,4-dioxane, 285.65 K | 0.0238
in 1,4-dioxane, 288.15 K | 0.0249
in 1,4-dioxane, 293.15 K | 0.0271
in 1,4-dioxane, 295.65 K | 0.0282
in 1,4-dioxane, 298.15 K | 0.0295
in 1,4-dioxane, 303.15 K | 0.0318
in 1,4-dioxane, 305.65 K | 0.0331
in 1,4-dioxane, 308.15 K | 0.0345
in 1,4-dioxane, 313.15 K | 0.0371
in 1,4-dioxane, 315.65 K | 0.0384
in 1,4-dioxane, 318.15 K | 0.0399
in 1,4-dioxane, 323.15 K | 0.0425
in 2-butanone, 273.15 K | 0.0161
in 2-butanone, 275.65 K | 0.0169
in 2-butanone, 278.15 K | 0.0177
in 2-butanone, 283.15 K | 0.0195
in 2-butanone, 285.65 K | 0.0205
in 2-butanone, 288.15 K | 0.0215
in 2-butanone, 293.15 K | 0.0234
in 2-butanone, 295.65 K | 0.0244
in 2-butanone, 298.15 K | 0.0256
in 2-butanone, 303.15 K | 0.0279
in 2-butanone, 305.65 K | 0.029
in 2-butanone, 308.15 K | 0.0302
in 2-butanone, 313.15 K | 0.0327
in 2-butanone, 315.65 K | 0.0339
in 2-butanone, 318.15 K | 0.0353
in 2-butanone, 323.15 K | 0.038
in DMF, 273.15 K | 0.0357
in DMF, 275.65 K | 0.039
in DMF, 278.15 K | 0.0425
in DMF, 283.15 K | 0.0497
in DMF, 285.65 K | 0.0535
in DMF, 288.15 K | 0.0586
in DMF, 293.15 K | 0.0682
in DMF, 295.65 K | 0.0732
in DMF, 298.15 K | 0.0789
in DMF, 303.15 K | 0.0912
in DMF, 305.65 K | 0.0976
in DMF, 308.15 K | 0.104
in DMF, 313.15 K | 0.12
in DMF, 315.65 K | 0.128
in DMF, 318.15 K | 0.137
in DMF, 323.15 K | 0.155
in acetone, 273.15 K | 0.0175
in acetone, 275.65 K | 0.0185
in acetone, 278.15 K | 0.0193
in acetone, 283.15 K | 0.0211
in acetone, 285.65 K | 0.022
in acetone, 288.15 K | 0.023
in acetone, 293.15 K | 0.025
in acetone, 295.65 K | 0.0261
in acetone, 298.15 K | 0.0271
in acetone, 303.15 K | 0.0293
in acetone, 305.65 K | 0.0305
in acetone, 308.15 K | 0.0317
in acetone, 313.15 K | 0.034
in acetone, 315.65 K | 0.0353
in acetone, 318.15 K | 0.0366
in acetone, 323.15 K | 0.0392
in acetonitrile, 273.15 K | 0.00359
in acetonitrile, 275.65 K | 0.00382
in acetonitrile, 278.15 K | 0.00403
in acetonitrile, 283.15 K | 0.00449
in acetonitrile, 285.65 K | 0.00474
in acetonitrile, 288.15 K | 0.00503
in acetonitrile, 293.15 K | 0.00555
in acetonitrile, 295.65 K | 0.00584
in acetonitrile, 298.15 K | 0.00618
in acetonitrile, 303.15 K | 0.00679
in acetonitrile, 305.65 K | 0.00709
in acetonitrile, 308.15 K | 0.00749
in acetonitrile, 313.15 K | 0.00822
in acetonitrile, 315.65 K | 0.00858
in acetonitrile, 318.15 K | 0.00894
in acetonitrile, 323.15 K | 0.00976
in benzyl alcohol, 273.15 K | 0.0134
in benzyl alcohol, 275.65 K | 0.0143
in benzyl alcohol, 278.15 K | 0.0154
in benzyl alcohol, 283.15 K | 0.0175
in benzyl alcohol, 285.65 K | 0.0188
in benzyl alcohol, 288.15 K | 0.0202
in benzyl alcohol, 293.15 K | 0.023
in benzyl alcohol, 295.65 K | 0.0245
in benzyl alcohol, 298.15 K | 0.0261
in benzyl alcohol, 303.15 K | 0.0294
in benzyl alcohol, 305.65 K | 0.0312
in benzyl alcohol, 308.15 K | 0.0331
in benzyl alcohol, 313.15 K | 0.0372
in benzyl alcohol, 315.65 K | 0.0393
in benzyl alcohol, 318.15 K | 0.0417
in benzyl alcohol, 323.15 K | 0.0466
in chloroform, 273.15 K | 0.000535
in chloroform, 275.65 K | 0.000577
in chloroform, 278.15 K | 0.000625
in chloroform, 283.15 K | 0.000722
in chloroform, 285.65 K | 0.000775
in chloroform, 288.15 K | 0.000837
in chloroform, 293.15 K | 0.000959
in chloroform, 295.65 K | 0.00102
in chloroform, 298.15 K | 0.00109
in chloroform, 303.15 K | 0.00124
in chloroform, 305.65 K | 0.00131
in chloroform, 308.15 K | 0.0014
in chloroform, 313.15 K | 0.0016
in chloroform, 315.65 K | 0.00169
in chloroform, 318.15 K | 0.00178
in chloroform, 323.15 K | 0.00201
in cyclohexanone, 273.15 K | 0.0295
in cyclohexanone, 275.65 K | 0.0307
in cyclohexanone, 278.15 K | 0.0321
in cyclohexanone, 283.15 K | 0.0352
in cyclohexanone, 285.65 K | 0.0367
in cyclohexanone, 288.15 K | 0.0387
in cyclohexanone, 293.15 K | 0.0422
in cyclohexanone, 295.65 K | 0.044
in cyclohexanone, 298.15 K | 0.0461
in cyclohexanone, 303.15 K | 0.0506
in cyclohexanone, 305.65 K | 0.0527
in cyclohexanone, 308.15 K | 0.0552
in cyclohexanone, 313.15 K | 0.0604
in cyclohexanone, 315.65 K | 0.0629
in cyclohexanone, 318.15 K | 0.0655
in cyclohexanone, 323.15 K | 0.0708
in ethanol, 273.15 K | 0.000713
in ethanol, 275.65 K | 0.000799
in ethanol, 278.15 K | 0.000897
in ethanol, 283.15 K | 0.00112
in ethanol, 285.65 K | 0.00123
in ethanol, 288.15 K | 0.00137
in ethanol, 293.15 K | 0.00166
in ethanol, 295.65 K | 0.00183
in ethanol, 298.15 K | 0.00201
in ethanol, 303.15 K | 0.00244
in ethanol, 305.65 K | 0.00265
in ethanol, 308.15 K | 0.00288
in ethanol, 313.15 K | 0.00347
in ethanol, 315.65 K | 0.00378
in ethanol, 318.15 K | 0.00405
in ethanol, 323.15 K | 0.00479
in ethyl acetate, 273.15 K | 0.00919
in ethyl acetate, 275.65 K | 0.00981
in ethyl acetate, 278.15 K | 0.0104
in ethyl acetate, 283.15 K | 0.0117
in ethyl acetate, 285.65 K | 0.0123
in ethyl acetate, 288.15 K | 0.0131
in ethyl acetate, 293.15 K | 0.0146
in ethyl acetate, 295.65 K | 0.0155
in ethyl acetate, 298.15 K | 0.0163
in ethyl acetate, 303.15 K | 0.0181
in ethyl acetate, 305.65 K | 0.019
in ethyl acetate, 308.15 K | 0.02
in ethyl acetate, 313.15 K | 0.022
in ethyl acetate, 315.65 K | 0.0231
in ethyl acetate, 318.15 K | 0.0243
in ethyl acetate, 323.15 K | 0.0266
in isopropanol, 273.15 K | 0.000586
in isopropanol, 275.65 K | 0.000643
in isopropanol, 278.15 K | 0.000741
in isopropanol, 283.15 K | 0.000937
in isopropanol, 285.65 K | 0.00104
in isopropanol, 288.15 K | 0.00115
in isopropanol, 293.15 K | 0.00143
in isopropanol, 295.65 K | 0.00159
in isopropanol, 298.15 K | 0.00175
in isopropanol, 303.15 K | 0.00214
in isopropanol, 305.65 K | 0.00234
in isopropanol, 308.15 K | 0.00257
in isopropanol, 313.15 K | 0.00311
in isopropanol, 315.65 K | 0.0034
in isopropanol, 318.15 K | 0.0037
in isopropanol, 323.15 K | 0.00443
in methanol, 273.15 K | 0.0014
in methanol, 275.65 K | 0.00151
in methanol, 278.15 K | 0.00167
in methanol, 283.15 K | 0.00196
in methanol, 285.65 K | 0.00212
in methanol, 288.15 K | 0.00233
in methanol, 293.15 K | 0.00272
in methanol, 295.65 K | 0.00295
in methanol, 298.15 K | 0.00318
in methanol, 303.15 K | 0.00372
in methanol, 305.65 K | 0.00397
in methanol, 308.15 K | 0.00427
in methanol, 313.15 K | 0.00493
in methanol, 315.65 K | 0.00527
in methanol, 318.15 K | 0.00566
in methanol, 323.15 K | 0.00646
